Assay results reported in patent US10077248B2, “Form of imazapyr, a process for its preparation and use the same” (priority 2015, dated 2018).

Type: physicochemical
Method: Samples prepared in Examples 4, and 5 were stored at 54° C. for 1 month, 3 months and 6 months. The procedures are followed according to CIPAC MT 46.3. The concentration of imazapyr was tested at the end of each storage time by high pressure liquid chromatography (HPLC). The aggregation was measured by observation. The original concentration of imazapyr in each formulation was 25%.

SMILES	storage stability / tendency of aggregation (in words)
CC(C)C1(C)N=C(c2ncccc2C(=O)O)NC1=O (racemic) [imazapyr in amorphous state, 2-[(RS)-4-isopropyl-4-methyl-5-oxo-2-imidazolin-2-yl]nicotinic acid]	high tendency of aggregation after a long storage time
CC(C)C1(C)N=C(c2ncccc2C(=O)O)NC1=O (racemic) [crystalline modification I of imazapyr, 2-[(RS)-4-isopropyl-4-methyl-5-oxo-2-imidazolin-2-yl]nicotinic acid]	significant increase in its storage stability
